Results as given in paper PMC3747596 (PLoS ONE, 2013).
Read-outs that look alike come from different tables or passages of the source.

How the values were obtained:
5-HT1a = target: T1, 5-HT1a (Homo sapiens, UniProt P08908); experiment: Radioligand displacement, 5-HT1a; format: binding
T1 sequence (P08908 1-422): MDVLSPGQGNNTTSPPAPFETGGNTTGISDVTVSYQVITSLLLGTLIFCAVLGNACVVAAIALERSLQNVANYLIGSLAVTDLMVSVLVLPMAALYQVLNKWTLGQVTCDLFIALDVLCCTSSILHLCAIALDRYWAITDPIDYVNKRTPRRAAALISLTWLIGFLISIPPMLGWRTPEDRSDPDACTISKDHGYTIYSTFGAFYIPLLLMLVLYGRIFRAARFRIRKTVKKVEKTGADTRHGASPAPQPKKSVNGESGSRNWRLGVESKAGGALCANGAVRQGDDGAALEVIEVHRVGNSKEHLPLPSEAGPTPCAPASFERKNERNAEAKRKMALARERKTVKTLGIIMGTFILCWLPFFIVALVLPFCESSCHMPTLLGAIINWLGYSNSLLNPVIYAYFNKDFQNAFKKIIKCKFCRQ

5-HT1b = 5-HT1b (Homo sapiens, UniProt P28222); experiment: Radioligand displacement, 5-HT1b; format: binding
[1] = target: T2, α1A-adrenoceptor (α1A-AR) (Homo sapiens, UniProt P35348); experiment: Radioligand displacement, α1A; format: binding
T2 sequence (P35348 1-466): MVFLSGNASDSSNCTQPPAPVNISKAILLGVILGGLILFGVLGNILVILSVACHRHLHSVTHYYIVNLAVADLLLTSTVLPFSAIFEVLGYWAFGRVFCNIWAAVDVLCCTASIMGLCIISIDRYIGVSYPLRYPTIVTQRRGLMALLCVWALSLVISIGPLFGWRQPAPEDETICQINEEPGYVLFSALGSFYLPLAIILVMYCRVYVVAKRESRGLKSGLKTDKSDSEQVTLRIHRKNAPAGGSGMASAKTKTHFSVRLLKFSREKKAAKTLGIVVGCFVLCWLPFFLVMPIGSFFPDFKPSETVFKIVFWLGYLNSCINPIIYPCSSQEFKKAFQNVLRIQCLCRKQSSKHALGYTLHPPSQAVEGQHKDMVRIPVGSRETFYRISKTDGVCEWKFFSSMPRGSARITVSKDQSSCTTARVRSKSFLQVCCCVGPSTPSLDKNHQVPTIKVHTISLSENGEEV

α1B = target: T3, α1B (Homo sapiens, UniProt P35368); experiment: Radioligand displacement, α1B; format: binding
T3 sequence (P35368 1-520): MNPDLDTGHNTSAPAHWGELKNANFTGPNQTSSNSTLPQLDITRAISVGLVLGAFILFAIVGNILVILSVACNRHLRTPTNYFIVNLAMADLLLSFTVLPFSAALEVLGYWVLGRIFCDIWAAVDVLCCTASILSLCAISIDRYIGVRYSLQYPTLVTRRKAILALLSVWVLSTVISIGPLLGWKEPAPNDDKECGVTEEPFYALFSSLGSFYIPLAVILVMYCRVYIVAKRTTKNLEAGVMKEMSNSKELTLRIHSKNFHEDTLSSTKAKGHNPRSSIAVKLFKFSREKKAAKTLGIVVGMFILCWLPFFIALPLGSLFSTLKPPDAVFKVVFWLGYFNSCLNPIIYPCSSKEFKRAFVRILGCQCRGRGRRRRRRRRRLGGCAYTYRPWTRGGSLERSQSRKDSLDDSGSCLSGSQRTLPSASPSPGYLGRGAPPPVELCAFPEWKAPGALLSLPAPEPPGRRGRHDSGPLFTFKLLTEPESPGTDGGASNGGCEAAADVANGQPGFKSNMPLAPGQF

D5 = D5 (Homo sapiens, UniProt P21918); experiment: Radioligand displacement, D5; format: binding
GABAA (BZP) = experiment: Radioligand displacement, GABAA (BZP); format: binding; conditions: [3H] radioligand Flunitrazepam; Rat, Brain
H1 = H1 (Homo sapiens, UniProt P35367); experiment: Radioligand displacement, H1; format: binding
H3 = H3 (Cavia porcellus, UniProt Q9JI35); experiment: Radioligand displacement, H3; format: binding, Guinea Pig
M4 = M4 (Homo sapiens, UniProt P08173); experiment: Radioligand displacement, M4; format: binding
σ1 = σ1 (Rattus norvegicus, UniProt Q9R0C9); experiment: Radioligand displacement, σ1; format: binding
α2A = target: T4, α2A (Homo sapiens, UniProt P08913); experiment: Radioligand displacement, α2A
T4 sequence (P08913 1-465): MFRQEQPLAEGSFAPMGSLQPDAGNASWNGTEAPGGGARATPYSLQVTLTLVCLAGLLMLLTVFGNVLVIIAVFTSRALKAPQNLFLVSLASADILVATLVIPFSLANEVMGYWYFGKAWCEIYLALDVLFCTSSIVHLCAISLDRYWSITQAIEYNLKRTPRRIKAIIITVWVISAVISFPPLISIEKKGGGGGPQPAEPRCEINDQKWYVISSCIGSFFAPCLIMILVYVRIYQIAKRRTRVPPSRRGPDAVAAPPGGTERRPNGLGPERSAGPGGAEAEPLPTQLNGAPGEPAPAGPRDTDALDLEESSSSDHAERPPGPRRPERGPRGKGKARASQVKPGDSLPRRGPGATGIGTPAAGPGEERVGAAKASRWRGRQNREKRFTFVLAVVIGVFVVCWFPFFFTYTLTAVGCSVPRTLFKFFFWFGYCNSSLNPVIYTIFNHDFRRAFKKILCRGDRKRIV

DAT = DAT (Homo sapiens, UniProt Q01959); experiment: Radioligand displacement, DAT
[2] = [3H] radioligand 8-OH-DPAT, Human, Cloned
[3] = Ki, [3H] radioligand Prazosin, Human, Cloned
[4] = K i, D5, radioligand displacement (Table 1)
[5] = Ki, [3H] radioligand SCH23390, Human, Cloned

Sequence of H1 (P35367 whole entry): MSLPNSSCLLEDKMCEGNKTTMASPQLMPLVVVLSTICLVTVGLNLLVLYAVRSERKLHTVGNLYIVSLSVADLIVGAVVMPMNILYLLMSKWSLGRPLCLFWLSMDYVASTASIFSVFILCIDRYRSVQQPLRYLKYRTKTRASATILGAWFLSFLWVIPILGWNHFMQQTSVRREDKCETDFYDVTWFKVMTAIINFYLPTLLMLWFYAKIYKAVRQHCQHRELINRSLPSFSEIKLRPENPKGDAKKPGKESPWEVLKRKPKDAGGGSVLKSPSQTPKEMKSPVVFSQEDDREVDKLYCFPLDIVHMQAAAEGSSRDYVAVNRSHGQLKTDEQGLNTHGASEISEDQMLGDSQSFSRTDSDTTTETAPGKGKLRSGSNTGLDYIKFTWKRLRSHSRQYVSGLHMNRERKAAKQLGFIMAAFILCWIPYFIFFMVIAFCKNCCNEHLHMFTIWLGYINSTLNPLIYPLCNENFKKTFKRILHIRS
Sequence of σ1 (Q9R0C9 whole entry): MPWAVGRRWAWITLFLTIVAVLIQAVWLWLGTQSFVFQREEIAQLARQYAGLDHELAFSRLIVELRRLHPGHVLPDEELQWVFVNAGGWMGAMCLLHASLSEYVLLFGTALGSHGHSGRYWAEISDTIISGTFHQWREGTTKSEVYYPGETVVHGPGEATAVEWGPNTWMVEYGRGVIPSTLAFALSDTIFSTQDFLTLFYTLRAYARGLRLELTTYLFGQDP
Sequence of M4 (P08173 whole entry): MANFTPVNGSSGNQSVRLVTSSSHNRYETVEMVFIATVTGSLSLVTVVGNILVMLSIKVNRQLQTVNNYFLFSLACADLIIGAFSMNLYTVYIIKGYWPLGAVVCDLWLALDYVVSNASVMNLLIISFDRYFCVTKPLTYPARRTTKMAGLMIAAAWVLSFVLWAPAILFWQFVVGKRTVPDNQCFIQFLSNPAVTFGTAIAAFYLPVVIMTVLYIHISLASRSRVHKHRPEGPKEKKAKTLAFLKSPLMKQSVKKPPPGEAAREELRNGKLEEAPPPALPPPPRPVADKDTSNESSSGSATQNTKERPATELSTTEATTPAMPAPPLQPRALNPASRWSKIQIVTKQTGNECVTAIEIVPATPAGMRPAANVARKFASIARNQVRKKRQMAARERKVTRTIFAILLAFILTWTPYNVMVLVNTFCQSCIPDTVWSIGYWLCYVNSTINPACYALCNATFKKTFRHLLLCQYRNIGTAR
Sequence of 5-HT1b (P28222 whole entry): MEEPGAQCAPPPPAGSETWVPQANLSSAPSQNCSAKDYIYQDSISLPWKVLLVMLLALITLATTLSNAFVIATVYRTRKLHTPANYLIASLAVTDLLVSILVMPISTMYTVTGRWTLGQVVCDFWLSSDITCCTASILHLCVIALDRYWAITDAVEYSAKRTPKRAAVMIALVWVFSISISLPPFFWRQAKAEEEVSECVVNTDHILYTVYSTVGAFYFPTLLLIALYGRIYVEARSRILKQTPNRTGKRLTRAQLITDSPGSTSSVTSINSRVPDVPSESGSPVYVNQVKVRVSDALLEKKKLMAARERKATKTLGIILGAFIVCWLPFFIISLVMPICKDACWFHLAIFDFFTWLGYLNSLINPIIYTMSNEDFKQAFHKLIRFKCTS
Sequence of H3 (Q9JI35 whole entry): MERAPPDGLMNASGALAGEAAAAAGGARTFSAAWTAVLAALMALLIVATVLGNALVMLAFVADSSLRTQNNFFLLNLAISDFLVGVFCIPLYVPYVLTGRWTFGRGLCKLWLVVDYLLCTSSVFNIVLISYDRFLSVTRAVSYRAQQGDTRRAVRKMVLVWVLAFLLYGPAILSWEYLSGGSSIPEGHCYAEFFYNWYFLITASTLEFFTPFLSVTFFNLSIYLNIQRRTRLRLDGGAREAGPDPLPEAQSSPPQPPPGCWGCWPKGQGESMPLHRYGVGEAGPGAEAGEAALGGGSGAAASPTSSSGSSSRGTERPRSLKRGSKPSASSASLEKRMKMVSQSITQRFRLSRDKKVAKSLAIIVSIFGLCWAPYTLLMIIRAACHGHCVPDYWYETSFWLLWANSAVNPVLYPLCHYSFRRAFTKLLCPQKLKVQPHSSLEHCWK
Sequence of D5 (P21918 whole entry): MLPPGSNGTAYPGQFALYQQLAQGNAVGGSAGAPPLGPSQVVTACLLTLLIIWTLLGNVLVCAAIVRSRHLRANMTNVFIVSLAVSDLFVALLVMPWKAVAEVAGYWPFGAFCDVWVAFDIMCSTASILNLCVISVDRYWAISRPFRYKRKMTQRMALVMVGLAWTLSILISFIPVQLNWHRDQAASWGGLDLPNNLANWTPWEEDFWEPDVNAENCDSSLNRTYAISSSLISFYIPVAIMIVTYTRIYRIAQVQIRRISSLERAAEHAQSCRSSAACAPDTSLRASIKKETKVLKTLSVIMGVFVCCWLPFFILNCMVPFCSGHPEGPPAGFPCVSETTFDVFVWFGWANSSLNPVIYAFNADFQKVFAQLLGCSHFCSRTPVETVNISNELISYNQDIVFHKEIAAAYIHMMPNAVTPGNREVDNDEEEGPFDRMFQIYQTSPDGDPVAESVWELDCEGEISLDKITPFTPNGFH
Sequence of DAT (Q01959 whole entry): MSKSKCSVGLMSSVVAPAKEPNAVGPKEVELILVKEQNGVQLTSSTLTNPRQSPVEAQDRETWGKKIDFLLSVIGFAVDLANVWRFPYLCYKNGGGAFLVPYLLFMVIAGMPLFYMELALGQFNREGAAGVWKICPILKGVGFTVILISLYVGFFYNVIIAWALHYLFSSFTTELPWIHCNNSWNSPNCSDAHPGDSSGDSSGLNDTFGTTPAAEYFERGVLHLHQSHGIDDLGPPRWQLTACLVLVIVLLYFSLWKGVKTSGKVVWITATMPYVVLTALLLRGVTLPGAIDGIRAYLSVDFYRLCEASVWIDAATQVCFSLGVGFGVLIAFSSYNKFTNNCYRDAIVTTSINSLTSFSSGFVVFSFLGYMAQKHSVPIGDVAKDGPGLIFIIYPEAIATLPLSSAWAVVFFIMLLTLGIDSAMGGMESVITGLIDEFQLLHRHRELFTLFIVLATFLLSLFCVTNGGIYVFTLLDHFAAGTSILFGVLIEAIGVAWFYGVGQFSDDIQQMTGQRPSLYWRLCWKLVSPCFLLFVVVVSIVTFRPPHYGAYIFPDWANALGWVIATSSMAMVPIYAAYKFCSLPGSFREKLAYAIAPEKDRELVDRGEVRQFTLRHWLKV

Structure (SMILES): Oc1ccc2c3c1O[C@H]1c4[nH]c5c(c4C[C@@]4(O)[C@@H](C2)N(CC2CC2)CC[C@]314)C[C@@]1(O)[C@H]2Cc3ccc(O)c4c3[C@@]1(CCN2CC1CC1)[C@H]5O4 [nor-BNI, Nor-binaltorphimine]
- Ki (5-HT1a; 5-HT1a, radioligand displacement (Table 1)): 1.1 µM
- Ki (5-HT1a; [2]): 1.11 µM
- Ki (5-HT1a; binding curve File S1, 5-HT1A Receptor, [3H]8-OH-DPAT (0.5 nM), Standard Binding Buffer): 1.11 µM
- Ki (5-HT1b): ≥ 10 µM
- Ki [1, 3]: ≥ 10 µM
- Ki (α1B; [3]): ≥ 10 µM
- Ki (D5; [4]): 3.9 µM
- Ki (D5; [5]): 3.92 µM
- Ki (D5; Ki, binding curve File S1, Dopamine5 Receptor, [3H]SCH23390 (1.2 nM), Dopamine Binding Buffer): 3.92 µM
- Ki (GABAA (BZP)): ≥ 10 µM
- Ki (H1): ≥ 10 µM
- Ki (H3): ≥ 10 µM
- Ki (M4): ≥ 10 µM
- Ki (σ1): ≥ 10 µM
- Ki (α2A; K i, α2A, radioligand displacement (Table 1)): 4.9 µM
- Ki (DAT): ≥ 10 µM

Structure (SMILES): N=C(N)Nc1ccc2[nH]c3c(c2c1)C[C@@]1(O)[C@H]2Cc4ccc(O)c5c4[C@@]1(CCN2CC1CC1)[C@H]3O5 [GNTI, 5′-guanidinonaltrindole]
- Ki (5-HT1a; [2]): ≥ 10 µM
- Ki (5-HT1b): ≥ 10 µM
- modulation of the displacement of [125I]HEAT by noradrenaline ([1]; 10 µM GNTI): did not detectably modulate
- Ki [1, 3]: 9.5 µM
- Ki ([1]; Ki, binding curve File S1, Alpha1A Receptor, [125I]HEAT (0.03 nM), for 14674 the curve marked old): 9.47 µM
- Ki (α1B; [3]): 8.9 µM
- Ki (α1B; Ki, binding curve File S1 (GNTI page), Alpha1B Receptor, [125I]HEAT (0.05 nM)): 8.91 µM
- Ki (D5; [4]): 8.2 µM
- Ki (D5; [5]): 8.18 µM
- Ki (GABAA (BZP)): ≥ 10 µM
- Ki (H1): ≥ 10 µM
- Ki (H3): ≥ 10 µM
- Ki (M4): ≥ 10 µM
- Ki (σ1): ≥ 10 µM
- Ki (α2A; Ki, [3H] radioligand Rauwolscine, Human, Cloned): ≥ 10 µM
- Ki (DAT): ≥ 10 µM

Structure (SMILES): CC(C)[C@@H](CN1CC[C@@](C)(c2cccc(O)c2)[C@@H](C)C1)NC(=O)[C@H]1Cc2ccc(O)cc2CN1 [JDTic]
- Ki (5-HT1a; [2]): ≥ 10 µM
- Ki (5-HT1b; [3H] radioligand GR125743, Human, Cloned, read-out: Ki): ≥ 10 µM
- Ki ([1]; read-out: Ki): ≥ 10 µM
- Ki (α1B; [3H] radioligand Prazosin, Human, Cloned, read-out: Ki): 4.81 µM
- Ki (α1B; binding curve File S1 (JDTic page), Alpha1B Receptor, [125I]HEAT (0.12 nM), read-out: Ki): 4.81 µM
- Ki (α1B; α1B, radioligand displacement (Table 1), read-out: K i): 4.8 µM
- Ki (D5; [3H] radioligand SCH23390, Human, Cloned, read-out: Ki): ≥ 10 µM
- Ki (GABAA (BZP)): ≥ 10 µM
- Ki (H1; [3H] radioligand Pyrilamine, Human, Cloned, read-out: Ki): ≥ 10 µM
- Ki (H3; [3H] radioligand α-methylhistamine, Guinea Pig, Cloned, read-out: Ki): ≥ 10 µM
- Ki (M4; [3H] radioligand QNB, Human, Cloned, read-out: Ki): ≥ 10 µM
- Ki (σ1; [3H] radioligand Pentazocine(+), Rat, Brain, read-out: Ki): 1.88 µM
- Ki (σ1; binding curve File S1, Sigma-1 Receptor, [3H]Pentazocine (3.0 nM), Sigma Binding Buffer, read-out: Ki): 1.88 µM
- Ki (σ1; σ1, radioligand displacement (Table 1), read-out: K i): 1.9 µM
- Ki (α2A): ≥ 10 µM
- Ki (DAT; K i, DAT, radioligand displacement (Table 1)): 4.4 µM
- Ki (DAT; Ki, [3H] radioligand WIN35428, Human, Cloned): 4.37 µM
- Ki (DAT; Ki, binding curve File S1, Dopamine Transporter, [3H]WIN35428 (3 nM), Transporter Binding Buffer): 4.37 µM
